Consider 25 compounds from ChEMBL document CHEMBL3046775, “Synthesis and evaluation of 7-substituted-3,4-dihydrobenzo[f][1,4]oxazepin-5(2H)-ones as anticonvulsant and hypnotic agents” (Med Chem Res, 2011).

Data set [1] relates to Mus musculus. The data set can be described thus: Neurotoxicity against Mus musculus (mouse) at 100 mg/kg, ip measured at 4 hr by rotarod test. The format is toxicity, organism-based. Also noted: dose 100 mg/kg, route intraperitoneal. The following applies: in vivo.
In data set [2] the test system is Mus musculus. The data set can be described thus: Anticonvulsant activity in Mus musculus (mouse) assessed as protection against maximal electroshock-induced seizures at 100 mg/kg, ip administered 30 min prior to electroshock-challenge measured at 4 hr. More on the design: dose 100 mg/kg. The data set is classed as functional, organism-based.
Data set [3] deals with Mus musculus. The data set can be described thus: Neurotoxicity against Mus musculus (mouse) at 100 mg/kg, ip measured at 0.5 hr by rotarod test. The format is toxicity, organism-based. More on the design: dose 100 mg/kg, route intraperitoneal. To be noted: in vivo. In general terms: Falling from the rotarod earlier than controls is read as motor impairment.
The subject of data set [4] is Mus musculus. The data set can be described thus: Anticonvulsant activity in Mus musculus (mouse) assessed as protection against maximal electroshock-induced seizures at 100 mg/kg, ip administered 30 min prior to electroshock-challenge measured at 0.5 hr. The data set is classed as functional, organism-based. More on the design: dose 100 mg/kg. For orientation: The maximal electroshock test induces tonic seizures with an electrical stimulus.

Data set [5] has as its system Mus musculus. The data set can be described thus: Anticonvulsant activity in ip dosed Mus musculus (mouse) assessed as protection against maximal electroshock-induced seizures administered 30 min prior to electroshock-challenge measured at 4 hr. The data set is classed as functional.
Data set [6] is described as follows: Protective index, ratio of TD50 for neurotoxicity to ED50 for anticonvulsant activity in mouse. The following applies: in vivo, read-out: Ratio TD50/ED50. The data set is classed as toxicity, organism-based.
The nature of data set [7]: Neurotoxicity against ip dosed Mus musculus (mouse) by rotarod test. The following applies: in vivo. The format is toxicity, organism-based.
Data set [8] concerns Mus musculus. The data set can be described thus: Neurotoxicity against Mus musculus (mouse) at 300 mg/kg, ip measured at 4 hr by rotarod test. More on the design: dose 300 mg/kg, route intraperitoneal. The data set is classed as toxicity, organism-based. The following applies: in vivo.
The subject of data set [9] is Mus musculus. The data set can be described thus: Anticonvulsant activity in Mus musculus (mouse) assessed as protection against maximal electroshock-induced seizures at 300 mg/kg, ip administered 30 min prior to electroshock-challenge measured at 4 hr. The format is functional, organism-based. More on the design: dose 300 mg/kg.
The subject of data set [10] is Mus musculus. The data set can be described thus: Neurotoxicity against Mus musculus (mouse) at 300 mg/kg, ip measured at 0.5 hr by rotarod test. More on the design: dose 300 mg/kg, route intraperitoneal. The following applies: in vivo. The format is toxicity, organism-based.
In data set [11] the test system is Mus musculus. The data set can be described thus: Anticonvulsant activity in Mus musculus (mouse) assessed as protection against maximal electroshock-induced seizures at 300 mg/kg, ip administered 30 min prior to electroshock-challenge measured at 0.5 hr. The format is functional, organism-based. Also noted: dose 300 mg/kg.
In data set [12] the test system is Mus musculus. The data set can be described thus: Hypnotic activity in Mus musculus Kunming (mouse) assessed as increase in phenobarbital-induced sleep duration at 10 mg/kg, ip administered 30 min prior to phenobarbital-induction. The data set is classed as functional, organism-based. Also noted: dose 10 mg/kg.
Data set [13] concerns Mus musculus. The data set can be described thus: Hypnotic activity in ip dosed Mus musculus Kunming (mouse) assessed as increase in phenobarbital-induced sleep duration administered 30 min prior to phenobarbital-induction. The data set is classed as functional, organism-based.
Data set [14] has as its system Mus musculus. The data set can be described thus: Hypnotic activity in Mus musculus Kunming (mouse) assessed as increase in phenobarbital-induced sleep duration at 60 mg/kg, ip administered 30 min prior to phenobarbital-induction (reference value: 20.9 +/- 2.31 min). The format is functional. The following applies: route intraperitoneal.
Data set [15] deals with Mus musculus. The data set can be described thus: Anticonvulsant activity in Mus musculus (mouse) assessed as protection against maximal electroshock-induced seizures at 30 mg/kg, ip administered 30 min prior to electroshock-challenge measured at 4 hr. The data set is classed as functional, organism-based. Also noted: dose 30 mg/kg.
Data set [16] concerns Mus musculus. The data set can be described thus: Hypnotic activity in Mus musculus Kunming (mouse) assessed as increase in phenobarbital-induced sleep duration at 30 mg/kg, ip administered 30 min prior to phenobarbital-induction. The format is functional, organism-based. More on the design: dose 30 mg/kg.
The subject of data set [17] is Mus musculus. The data set can be described thus: Anticonvulsant activity in Mus musculus (mouse) assessed as protection against maximal electroshock-induced seizures at 30 mg/kg, ip administered 30 min prior to electroshock-challenge measured at 0.5 hr. Also noted: dose 30 mg/kg. The data set is classed as functional, organism-based.
Data set [18] concerns Mus musculus. The data set can be described thus: Hypnotic activity in Mus musculus Kunming (mouse) assessed as increase in phenobarbital-induced sleep duration at 60 mg/kg, ip administered 30 min prior to phenobarbital-induction. The data set is classed as functional, organism-based. Also noted: dose 60 mg/kg.

The source made the active and inactive calls. No cut-off for these calls is given here.

With `O=C1NCCOc2ccc(OCc3ccccc3F)cc21`, the Activity result is given as “Non-toxic” in the data set with Mus musculus [1] and “Toxic” with Mus musculus [3]. Further, the outcome with Mus musculus [2] was inactive. For the same compound, the result in the data set on Mus musculus [4] was Active. Also, in the data set with Mus musculus [5], the ED50 (usually the midpoint of the dose-response relation) amounted to 45.6 mg/kg. For the same compound, the selectivity ratio in [6] amounted to 1.2. In data set [7], the TD50 (in general, the dose at which the toxic effect under study appears in half of the subjects) is 52.8 mg/kg.
As for `CCCCCCCCOc1ccc2c(c1)C(=O)NCCO2`, the Activity entry in the data set with Mus musculus [1] is reported as “Non-toxic”; in the data set on Mus musculus [3], “Toxic”. Besides, the result in the data set on Mus musculus [2] was inactive. Further, the result in the data set on Mus musculus [4] was Active.
`NC(=O)N1c2ccccc2C=Cc2ccccc21` [CARBAMAZEPINE]: the selectivity ratio in data set [6] is 6.4.
For the compound `O=C1NCCOc2ccc(OCc3ccccc3)cc21`, the Activity entry with Mus musculus [1] is recorded as “Non-toxic”; in the data set on Mus musculus [3], “Toxic”. Further, the result in the data set with Mus musculus [2] was inactive. Also, in the data set on Mus musculus [4], the result was Active. For the same compound, in the data set with Mus musculus [5], the ED50 came to 73.1 mg/kg. Also, the selectivity ratio in [6] is 1. Also, in [7], the TD50 worked out at 76.2 mg/kg.
For `O=C1NCCOc2ccc(OCc3ccccc3Br)cc21`, the Activity result was “Non-toxic” in the data set with Mus musculus [1] and “Toxic” with Mus musculus [3]. The result in the data set with Mus musculus [2] and in the data set with Mus musculus [4] was inactive.
For `O=C1NCCOc2ccc(OCc3ccc(Br)cc3)cc21`, the Activity entry with Mus musculus [8] was “Non-toxic”; with Mus musculus [10], “Toxic”. For the same compound, the result with Mus musculus [9] was inactive. In addition, the outcome in the data set with Mus musculus [11] was Active.
For the compound `Cc1ccc(COc2ccc3c(c2)C(=O)NCCO3)cc1`, the Activity result is reported as “Non-toxic” in the data set with Mus musculus [1] and “Toxic” in the data set on Mus musculus [3]. Also, the outcome in the data set with Mus musculus [2] and in the data set with Mus musculus [4] was inactive.
With `CCCCCCCCCCCCOc1ccc2c(c1)C(=O)NCCO2`, the Activity entry is listed as “Non-toxic” with Mus musculus [8] and “Toxic” in the data set with Mus musculus [10]. Also, the outcome in the data set with Mus musculus [9] was inactive. The result in the data set on Mus musculus [11] was Active.
Regarding `CCC1(c2ccccc2)C(=O)NC(=O)NC1=O` [PHENOBARBITAL], the ED50 in the data set on Mus musculus [5] came out at 21.8 mg/kg.
Compound `O=C1CCc2cc(OCc3ccccc3)ccc2N1` returned a TD50 in [7] of more than 300 mg/kg.
Consider `CCCCCCOc1ccc2c(c1)C(=O)NCCO2`, for which the Activity entry in the data set on Mus musculus [1] is reported as “Non-toxic”; in the data set with Mus musculus [3] it was “Toxic”. Moreover, the result in the data set on Mus musculus [2] and in the data set on Mus musculus [4] was Active. The median effective dose (ED50) in the data set on Mus musculus [5] was found to be 47.3 mg/kg. Further, the selectivity ratio in data set [6] was determined as 2.2. Further, in data set [7], the TD50 turned out to be 106 mg/kg.
Turning to `CCCCCCCOc1ccc2c(c1)C(=O)NCCO2`, the values for the Activity entry with Mus musculus [1], in the data set on Mus musculus [3] and in the data set on Mus musculus [13] were “Non-toxic”, “Toxic” and “Dose-dependent effect”, respectively. The outcome in the data set with Mus musculus [12] and with Mus musculus [15] was inactive. Also, the Time with Mus musculus [14] is 45.7 min. The ED50 with Mus musculus [5] stood at 19 mg/kg. In addition, the selectivity ratio in [6] was determined as 2.5. Also, in data set [7], the TD50 worked out at 47.3 mg/kg. Besides, the outcome in the data set on Mus musculus [16] and in the data set with Mus musculus [17] was Active.
On to `COc1ccc(COc2ccc3c(c2)C(=O)NCCO3)cc1`, for which the Activity result in the data set on Mus musculus [1] and in the data set on Mus musculus [3] was “Non-toxic” each time. Also, the outcome in the data set on Mus musculus [2] and in the data set on Mus musculus [4] was inactive.
`CN1CCN(C(=O)OC2c3nccnc3C(=O)N2c2ccc(Cl)cn2)CC1` (stereo not drawn): in the data set with Mus musculus [18], the result was Active.
As to `CCOc1ccc2c(c1)C(=O)NCCO2`, the Activity result in the data set with Mus musculus [1] and with Mus musculus [3] was “Non-toxic” throughout. Besides, the outcome with Mus musculus [2] and with Mus musculus [4] was inactive.
Turning to `COc1ccc(COc2ccc3c(c2)C(=O)NCCO3)cc1OC`, the values for the Activity result in the data set with Mus musculus [1] and with Mus musculus [3] were “Non-toxic” and “Toxic”, respectively. The result with Mus musculus [2] and with Mus musculus [4] was inactive.
On to `CCCCOc1ccc2c(c1)C(=O)NCCO2`, for which the Activity entry in the data set on Mus musculus [1] is given as “Non-toxic”; in the data set with Mus musculus [3] it was “Toxic”. Further, the outcome with Mus musculus [2] and in the data set with Mus musculus [4] was Active.
As for `O=C1NCCOc2ccc(OCc3ccc(Cl)cc3)cc21`, the Activity result with Mus musculus [1] is recorded as “Non-toxic”; in the data set on Mus musculus [3], “Toxic”. The result in the data set with Mus musculus [2] and in the data set with Mus musculus [4] was inactive.
Turning to `O=C1NCCOc2ccc(OCc3ccccc3Cl)cc21`, the figures for the Activity entry in the data set on Mus musculus [8] and in the data set on Mus musculus [10] were “Non-toxic” and “Toxic”, respectively. For the same compound, the outcome with Mus musculus [9] was inactive. Moreover, the outcome with Mus musculus [11] was Active.
Taken in the same sequence, the figures for `O=C1NCCOc2ccc(OCc3ccc(F)cc3)cc21` were “Non-toxic”, “Toxic”, “Active” and “Active”.
As for `CCCOc1ccc2c(c1)C(=O)NCCO2`, the Activity result in the data set with Mus musculus [1] is “Non-toxic”; with Mus musculus [3], “Toxic”. For the same compound, the result in the data set on Mus musculus [2] was inactive. Further, in the data set on Mus musculus [4], the result was Active. Also, the ED50 in the data set with Mus musculus [5] is 78.3 mg/kg. Besides, the selectivity ratio in [6] was 2.2. Besides, in data set [7], the TD50 is 170 mg/kg.
Turning to `CCCCCOc1ccc2c(c1)C(=O)NCCO2`, the Activity result in the data set on Mus musculus [1] is recorded as “Non-toxic”; with Mus musculus [3], “Toxic”. Also, the outcome in the data set with Mus musculus [2] was inactive. For the same compound, the outcome with Mus musculus [4] was Active. Moreover, in the data set with Mus musculus [5], the ED50 is 56.8 mg/kg. Besides, the selectivity ratio in data set [6] was found to be 1.9. In data set [7], this compound came in with a TD50 of 106 mg/kg.
Take `O=C1NCCOc2ccc(OCc3cccc(F)c3)cc21`: the Activity result in the data set on Mus musculus [1] is reported as “Non-toxic”; in the data set with Mus musculus [3], “Toxic”. Moreover, the result with Mus musculus [2] was inactive. The outcome with Mus musculus [4] was Active. In addition, the ED50 with Mus musculus [5] was determined as 73.1 mg/kg. Also, in [6], the selectivity ratio is 1. In addition, the TD50 in [7] worked out at 73.1 mg/kg.
Turning to `O=C1NCCOc2ccc(OCc3cccc(Cl)c3)cc21`, the figures for the Activity entry in the data set on Mus musculus [1] and in the data set with Mus musculus [3] were “Non-toxic” and “Toxic”, respectively. Also, the outcome in the data set on Mus musculus [2] was inactive. For the same compound, the result with Mus musculus [4] was Active.
`O=C1NCCOc2ccc(OCc3c(Cl)cccc3Cl)cc21`: the Activity entry was “Non-toxic” with Mus musculus [1] and “Toxic” in the data set on Mus musculus [3]. The result with Mus musculus [2] and with Mus musculus [4] was inactive.
